This passage reports IC50 results from patent publication US20240415819A1, “MACROCYCLIC COMPOUNDS AS PROTEASOME SUBUNIT BETA TYPE-5 INHIBITORS” (Lead Discovery Center GmbH, priority 2021, published 2024).

Read-outs that look alike come from different tables or passages of the source.

For test [1], the target named is T1, β5 subunit of the human immunoproteasome (IPS) (Homo sapiens, UniProt P28062).
T1 construct: purchased Boston Biochem E-370
In words: β5 inhibition assay, human immunoproteasome (Suc-LLVY-AMC). The format is biochemical. The note with it: IC50 class, Suc-LLVY-AMC substrate. The essentials: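 β5 activity is read as liberated AMC fluorescence (355/460 nm) after 4 h dark reaction at RT with 22.6 μM Suc-LLVY-AMC, stopped by 1 μM bortezomib. Beforehand, 1 nM human IPS and compound sat 10 min at RT in HEPES pH 7.5 buffer containing NaCl, 0.02% SDS and DTT.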

The test system of test [2] is A549 (human lung carcinoma cell line). The test is described as follows: Glo assay of A549 cells (Table 3; ProteasomeGlo plating scheme). Format: cell-based. The note with it: Homo sapiens. The procedure, abridged: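 Cells plated in 384 wells; compound, DMSO, staurosporine transferred by ECHO; 105 min, 37° C., 5% CO2; Proteasome-Glo (Suc-LLVY-Glo) reagent added; dark 10-15 min; luminescence; IC50 nM.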

Setting [3] is: A549 cells, read-out: PGLo A549.

For the compound `Cc1ccc2cc1CNC(=O)[C@H](CCc1ccccc1)NC(=O)[C@@H](NC(=O)Cc1cccc(N)c1)CC(=O)N1CCCC(CCO2)C1` (stereo partly drawn) [Compound 127, 2-(3-aminophenyl)-N-((9S,12S)-5^4-methyl-8,11,14-trioxo-9-phenethyl-4-oxa-7,10-diaza-1(3,1)-piperidina-5(1,3)-benzenacyclotetradecaphane-12-yl)acetamide], the IC50 in test [1] and in test [2] (setting [3]) was below 100 nM each time.

In the case of `COc1ccc(CC(=O)N[C@H]2CC(=O)N3CCCC(CCOc4ccc(C)c(c4)CNC(=O)[C@H](CCc4ccccc4)NC2=O)C3)cc1OC` (stereo partly drawn) [Compound 63, 2-(3,4-dimethoxyphenyl)-N-((9S,12S)-5^4-methyl-8,11,14-trioxo-9-phenethyl-4-oxa-7,10-diaza-1(3,1)-piperidina-5(1,3)-benzenacyclotetradecaphane-12-yl)acetamide], the IC50 in test [1] and in test [2] (setting [3]) was below 100 nM each time.

On to `Cc1nc2cc(CCC(=O)N[C@H]3CC(=O)N4CCCC(CCOc5ccc(C)c(c5)CNC(=O)[C@H](CCc5ccccc5)NC3=O)C4)ccc2[nH]1` (stereo partly drawn) [Compound 174, 3-(2-methyl-1H-benzo[d]imidazol-6-yl)-N-((9S,12S)-5^4-methyl-8,11,14-trioxo-9-phenethyl-4-oxa-7,10-diaza-1(3,1)-piperidina-5(1,3)-benzenacyclotetradecaphane-12-yl)propanamide], for which the IC50 in test [1] and in test [2] (setting [3]) was below 100 nM each time.

As to `CC(=O)N[C@H]1CC(=O)N2CCCC(CCOc3ccc(C)c(c3)CNC(=O)C(CCc3cnccn3)NC1=O)C2` (stereo partly drawn) [Compound 564, N-((12S)-5^4-methyl-8,11,14-trioxo-9-(2-(pyrazin-2-yl)ethyl)-4-oxa-7,10-diaza-1(3,1)-piperidina-5(1,3)-benzenacyclotetradecaphane-12-yl)acetamide], the IC50 in test [1] and in test [2] (setting [3]) was below 100 nM throughout.

In the case of `Cc1ccc2cc1CNC(=O)[C@H](CCc1ccccc1)NC(=O)[C@@H](NC(=O)C1(N)COC1)CC(=O)N1CCCC(CCO2)C1` (stereo partly drawn) [Compound 158, 3-amino-N-((9S,12S)-5^4-methyl-8,11,14-trioxo-9-phenethyl-4-oxa-7,10-diaza-1(3,1)-piperidina-5(1,3)-benzenacyclotetradecaphane-12-yl)oxetane-3-carboxamide], the IC50 in test [1] and in test [2] (setting [3]) was below 100 nM throughout.

For the compound `CC(=O)N[C@H]1CCC(=O)N2CCOC(CCOc3ccc(C)c(c3)CNC(=O)[C@H](CCc3ccccc3)NC1=O)C2` (stereo partly drawn) [Compound 143, N-((9S,12S)-5^4-methyl-8,11,15-trioxo-9-phenethyl-4-oxa-7,10-diaza-1(2,4)-morpholina-5(1,3)-benzenacyclopentadecaphane-12-yl)acetamide], the IC50 in test [1] was below 100 nM; in test [2] (setting [3]) it was 100 to 500 nM.

For the compound `Cc1ccc2cc1CNC(=O)[C@H](CCc1ccccc1)NC(=O)[C@@H](NC(=O)CN1CCNCC1)CC(=O)N1CCCC(CCO2)C1` (stereo partly drawn) [Compound 126, N-((9S,12S)-5^4-methyl-8,11,14-trioxo-9-phenethyl-4-oxa-7,10-diaza-1(3,1)-piperidina-5(1,3)-benzenacyclotetradecaphane-12-yl)-2-(piperazin-1-yl)acetamide], the IC50 in test [1] and in test [2] (setting [3]) was below 100 nM in each case.

For `Cc1ccc2cc1CNC(=O)[C@H](CCc1ccccc1)NC(=O)CCC(=O)N1CCCC(CCO2)C1` (stereo partly drawn) [Compound 13, (9S)-5^4-methyl-9-phenethyl-4-oxa-7,10-diaza-1(3,1)-piperidina-5(1,3)-benzenacyclotetradecaphane-8,11,14-trione], the IC50 in test [1] is below 100 nM; in test [2] (setting [3]), 500 to 1000 nM.

Turning to `Cc1ccc2cc1CNC(=O)[C@H](CCc1ccccc1)NC(=O)[C@@H](NC(=O)C1CCN1)CC(=O)N1CCCC(CCO2)C1` (stereo partly drawn) [Compound 160, (2R)-N-((9S,12S)-5^4-methyl-8,11,14-trioxo-9-phenethyl-4-oxa-7,10-diaza-1(3,1)-piperidina-5(1,3)-benzenacyclotetradecaphane-12-yl)azetidine-2-carboxamide], the IC50 in test [1] is below 100 nM; in test [2] (setting [3]), 100 to 500 nM.

`CC(=O)N[C@H]1CC(=O)N2CCCC(CCOc3ccc(C)c(c3)CNC(=O)C(c3cnn(CCCC(=O)O)c3)NC1=O)C2` (stereo partly drawn) [Compound 568, 4-(4-((12S)-12-acetamido-5^4-methyl-8,11,14-trioxo-4-oxa-7,10-diaza-1(3,1)-piperidina-5(1,3)-benzenacyclotetradecaphane-9-yl)-1H-pyrazol-1-yl)butanoic acid]: the IC50 in test [1] and in test [2] (setting [3]) was below 100 nM each time.

Take `Cc1ccc2cc1CNC(=O)[C@H](CCc1ccccc1)NC(=O)[C@@H](NC(=O)[C@@H](C)c1ccccc1)CC(=O)N1CCCC(CCO2)C1` (stereo partly drawn) [Compound 81, (2S)-N-((9S,12S)-5^4-methyl-8,11,14-trioxo-9-phenethyl-4-oxa-7,10-diaza-1(3,1)-piperidina-5(1,3)-benzenacyclotetradecaphane-12-yl)-2-phenylpropanamide]: the IC50 in test [1] and in test [2] (setting [3]) was below 100 nM each time.

In the case of `COCCOCCOCCOC(=O)N[C@H]1CC(=O)N2CCCC(CCOc3ccc(C)c(c3)CNC(=O)[C@H](CCc3ccccc3)NC1=O)C2` (stereo partly drawn) [Compound 220, 2-(2-(2-methoxyethoxy)ethoxy)ethyl ((9R,12R)-5^4-methyl-8,11,14-trioxo-9-phenethyl-4-oxa-7,10-diaza-1(3,1)-piperidina-5(1,3)-benzenacyclotetradecaphane-12-yl)carbamate], the IC50 in test [1] is below 100 nM; in test [2] (A549, read-out: PGLo A549 [nM]), below 100 nM.

Take `Cc1ccc2cc1CNC(=O)[C@H](CCc1ccccc1)NC(=O)[C@@H](NC(=O)C1CCCc3ccccc31)CC(=O)N1CCCC(CCO2)C1` (stereo partly drawn) [Compound 82, N-((9S,12S)-5^4-methyl-8,11,14-trioxo-9-phenethyl-4-oxa-7,10-diaza-1(3,1)-piperidina-5(1,3)-benzenacyclotetradecaphane-12-yl)-1,2,3,4-tetrahydronaphthalene-1-carboxamide]: the IC50 in test [1] and in test [2] (setting [3]) was below 100 nM throughout.

Take `Cc1ccc2cc1CNC(=O)[C@H](CCc1ccccc1)NC(=O)[C@@H](NC(=O)CCc1ccc3[nH]ccc3c1)CC(=O)N1CCCC(CCO2)C1` (stereo partly drawn) [Compound 182, 3-(1H-indol-5-yl)-N-((9S,12S)-5^4-methyl-8,11,14-trioxo-9-phenethyl-4-oxa-7,10-diaza-1(3,1)-piperidina-5(1,3)-benzenacyclotetradecaphane-12-yl)propanamide]: the IC50 in test [1] and in test [2] (setting [3]) was below 100 nM throughout.

Regarding `Cc1ccc2cc1CNC(=O)[C@H](CCc1ccccc1)NC(=O)[C@@H](NC(=O)[C@H](C)c1ccccc1)CC(=O)N1CCCC(CCO2)C1` (stereo partly drawn) [Compound 80, (2R)-N-((9S,12S)-5^4-methyl-8,11,14-trioxo-9-phenethyl-4-oxa-7,10-diaza-1(3,1)-piperidina-5(1,3)-benzenacyclotetradecaphane-12-yl)-2-phenylpropanamide], the IC50 in test [1] and in test [2] (setting [3]) was below 100 nM throughout.

For `CO[C@@H](C(=O)N[C@H]1CC(=O)N2CCCC(CCOc3ccc(C)c(c3)CNC(=O)[C@H](CCc3ccccc3)NC1=O)C2)c1ccccc1` (stereo partly drawn) [Compound 86, (2R)-2-methoxy-N-((9S,12S)-5^4-methyl-8,11,14-trioxo-9-phenethyl-4-oxa-7,10-diaza-1(3,1)-piperidina-5(1,3)-benzenacyclotetradecaphane-12-yl)-2-phenylacetamide], the IC50 in test [1] and in test [2] (setting [3]) was below 100 nM in each case.
